Among the data in ChEMBL document CHEMBL4665695, “Antifungal Phenols from Woodfordia uniflora Collected in Oman” (2020) are MIC values, retold here.

SMILES strings stand for the structures. Converted amounts (≈) assume the structure as drawn. A value given as a limit tells only on which side of the number the result lay.

What all share (format): functional
Experiment [1] concerns Cryptococcus neoformans. The experiment is described as follows: Antifungal activity against Cryptococcus neoformans H99 by CLSI protocol-based broth serial dilution method.
The test system of another experiment is Candida albicans. The experiment in a line: Antifungal activity against Candida albicans SC5314 by CLSI protocol-based broth serial dilution method.
Experiment [2] concerns Cryptococcus neoformans. The experiment in a line: Antifungal activity against Cryptococcus neoformans JEC21 by CLSI protocol-based broth serial dilution method.

Take `COc1cc(O)c2c(=O)c(O[C@@H]3O[C@H](COC(=O)c4cc(O)c(O)c(O)c4)[C@@H](O)[C@H](O)[C@H]3O)c(-c3ccc(O)c(O)c3)oc2c1`: the minimal inhibitory concentration (MIC) with Cryptococcus neoformans [1] was 10 µM (≈ 6.31 µg/mL); against Candida albicans, over 317 µM.
Take `O=C(Oc1cc(O)c2c(c1)O[C@H](c1ccc(O)c(O)c1)CC2)c1cc(O)c(O)c(O)c1`: the values for the MIC in the experiment with Cryptococcus neoformans [1], with Candida albicans and with Cryptococcus neoformans [2] were 1.9 µM (≈ 0.81 µg/mL), 14.8 µM (≈ 6.31 µg/mL) and 3.8 µM (≈ 1.62 µg/mL), respectively.
Consider `CCOC(=O)c1cc(O)c(O)c(O)c1` [ETHYLGALLATE], for which the minimal inhibitory concentration (MIC) with Cryptococcus neoformans [1] is 126 µM (≈ 25 µg/mL); against Candida albicans it was over 252 µM; against Cryptococcus neoformans [2], 252 µM (≈ 50 µg/mL).
Turning to `COc1c(O)cc(C(=O)O)cc1O`, the MIC against Cryptococcus neoformans [1] is 67.9 µM (≈ 12.5 µg/mL); with Candida albicans, over 272 µM; against Cryptococcus neoformans [2] it was 272 µM (≈ 50 µg/mL).
With `O=C(Oc1cc(O)c2c(c1)O[C@@H](c1ccc(O)c(O)c1)CC2)c1cc(O)c(O)c(O)c1`, the MIC with Cryptococcus neoformans [1] came to 1.9 µM (≈ 0.81 µg/mL); against Candida albicans it was 14.8 µM (≈ 6.31 µg/mL); with Cryptococcus neoformans [2], 3.8 µM (≈ 1.62 µg/mL).
For `OC(Cn1cncn1)(Cn1cncn1)c1ccc(F)cc1F` [FLUCONAZOLE], the MIC worked out at 25.5 µM (≈ 7.81 µg/mL) in the experiment with Cryptococcus neoformans [1], 1.6 µM (≈ 0.49 µg/mL) against Candida albicans and 6.5 µM (≈ 1.99 µg/mL) in the experiment with Cryptococcus neoformans [2].
For `O=C(Oc1cc([C@H]2Oc3cc(O)cc(O)c3C[C@@H]2O)ccc1O)c1cc(O)c(O)c(O)c1`, the MIC is 113 µM (≈ 50 µg/mL) against Cryptococcus neoformans [1], over 113 µM with Candida albicans and 113 µM (≈ 50 µg/mL) in the experiment on Cryptococcus neoformans [2].
Regarding `O=c1c(O[C@@H]2O[C@H](CO)[C@@H](O)[C@H](O)[C@H]2O)c(-c2ccc(O)c(O)c2)oc2cc(O)cc(O)c12` [ISOQUERCETIN], the results for the MIC in the experiment with Cryptococcus neoformans [1], with Candida albicans and against Cryptococcus neoformans [2] were 53.9 µM (≈ 25 µg/mL), over 108 µM and 108 µM (≈ 50 µg/mL), respectively.
For the compound `C[C@]12OC(=O)C[C@H]1[C@H]1Oc3cc(O)cc(O)c3C[C@H]1O2`, the MIC against Cryptococcus neoformans [1] is 180 µM (≈ 50 µg/mL); against Candida albicans it was over 180 µM; in the experiment on Cryptococcus neoformans [2], 180 µM (≈ 50 µg/mL).
As for `COc1cc(O)c2c(=O)c(O[C@@H]3O[C@@H](C)[C@H](O)[C@@H](O)[C@H]3O)c(-c3ccc(O)cc3)oc2c1`, the figures for the minimal inhibitory concentration (MIC) in the experiment with Cryptococcus neoformans [1], with Candida albicans and in the experiment with Cryptococcus neoformans [2] were 56 µM (≈ 25 µg/mL), over 112 µM and 56 µM (≈ 25 µg/mL), respectively.
Consider `O=C(O[C@H]1[C@H](c2c(O)cc(O)c3c2O[C@H](c2ccc(O)c(O)c2)[C@@H](O)C3)c2c(O)cc(O)cc2O[C@@H]1c1ccc(O)c(O)c1)c1cc(O)c(O)c(O)c1`, for which the MIC was found to be 4.2 µM (≈ 3.07 µg/mL) in the experiment on Cryptococcus neoformans [1], 17.1 µM (≈ 12.5 µg/mL) in the experiment on Candida albicans and 8.5 µM (≈ 6.21 µg/mL) against Cryptococcus neoformans [2].
Regarding `O=C(OC[C@H]1O[C@@H](Oc2c(-c3ccc(O)c(O)c3)oc3cc(O)cc(O)c3c2=O)[C@H](O)[C@@H](O)[C@@H]1O)c1cc(O)c(O)c(O)c1`, the minimal inhibitory concentration (MIC) against Cryptococcus neoformans [1] was 2.6 µM (≈ 1.6 µg/mL); against Candida albicans, over 325 µM.
For `O=C(Oc1cc(O)c2c(c1)O[C@H](c1ccc(O)c(O)c1)[C@@H](O)C2)c1cc(O)c(O)c(O)c1`, the results for the minimum inhibitory concentration (MIC) against Cryptococcus neoformans [1] and with Candida albicans were 1.8 µM (≈ 0.796 µg/mL) and 56.6 µM (≈ 25 µg/mL), respectively.
`O=C(OC[C@H]1O[C@@H](Oc2c(-c3ccc(O)cc3)oc3cc(O)cc(O)c3c2=O)[C@H](O)[C@@H](O)[C@@H]1O)c1cc(O)c(O)c(O)c1`: the results for the minimal inhibitory concentration (MIC) against Cryptococcus neoformans [1], against Candida albicans and in the experiment with Cryptococcus neoformans [2] were 20.8 µM (≈ 12.5 µg/mL), over 83.3 µM and 83.3 µM (≈ 50 µg/mL), respectively.
Take `Oc1cc(O)c2c(c1)O[C@H](c1ccc(O)c(O)c1)[C@@H](O)[C@@H]2c1c(O)cc(O)c2c1O[C@H](c1ccc(O)c(O)c1)[C@@H](O)C2`: the MIC is 5.4 µM (≈ 3.12 µg/mL) in the experiment on Cryptococcus neoformans [1], over 86.5 µM with Candida albicans and 5.4 µM (≈ 3.12 µg/mL) in the experiment on Cryptococcus neoformans [2].
Consider `O=C(Oc1ccc([C@H]2Oc3cc(O)cc(O)c3C[C@@H]2O)cc1O)c1cc(O)c(O)c(O)c1`, for which the results for the MIC with Cryptococcus neoformans [1], with Candida albicans and in the experiment with Cryptococcus neoformans [2] were 113 µM (≈ 50 µg/mL), 56.6 µM (≈ 25 µg/mL) and 113 µM (≈ 50 µg/mL), respectively.
On to `CC(=O)[C@@H](CC(=O)O)[C@H]1Oc2cc(O)cc(O)c2C[C@@H]1O`, for which the MIC with Cryptococcus neoformans [1] is 169 µM (≈ 50 µg/mL); in the experiment on Candida albicans, over 169 µM; against Cryptococcus neoformans [2] it was 169 µM (≈ 50 µg/mL).
With `COc1cc(O)c2c(=O)c(O[C@@H]3O[C@@H](C)[C@H](O)[C@@H](O)[C@H]3O)c(-c3ccc(O)c(O)c3)oc2c1`, the results for the minimal inhibitory concentration (MIC) with Cryptococcus neoformans [1] and in the experiment on Candida albicans were 27 µM (≈ 12.5 µg/mL) and over 433 µM, respectively.
On to `COc1cc(O)c2c(=O)c(O)c(-c3ccc(O[C@@H]4O[C@H](CO)[C@@H](O)[C@H](O)[C@H]4O)c(O)c3)oc2c1`, for which the values for the minimum inhibitory concentration (MIC) with Cryptococcus neoformans [1], in the experiment with Candida albicans and against Cryptococcus neoformans [2] were 52.3 µM (≈ 25 µg/mL), over 105 µM and 105 µM (≈ 50 µg/mL), respectively.
For `O=C(O)c1cc(O)c(O)c(O)c1` [GALLIC ACID] the same measures were 147 µM (≈ 25 µg/mL), over 294 µM and 147 µM (≈ 25 µg/mL).
In the case of `Oc1cc(O)c2c(c1)O[C@H](c1ccc(O)c(O)c1)[C@@H](O)C2` [CIANIDANOL], the MIC against Cryptococcus neoformans [1] is 10.7 µM (≈ 3.11 µg/mL); against Candida albicans, over 690 µM.

One may read the MIC as the lowest concentration found to suppress growth. A low value points to greater potency.
